The text below walks through data of patent US20080027027A1, “Lactosucrose High Content Saccharide, Its Preparation and Uses” (priority 2004, published 2008).

SMILES strings stand for the structures. Read-outs that look alike come from different tables or passages of the source.

The conditions of data set [1]: crystal obtained from 90% (v/v) ethanol solution, Avigad 1957; cited from earlier work.
Data set [2] in a line: Hygroscopicity of solid lactosucrose products under high temperature and humidity. It is filed as physicochemical. The source says:
While, it has been known that a powdery saccharide, comprising lactosucrose with a lowered hygroscopicity and relatively high stability, can be obtained by elevating the purity of lactosucrose (see Japanese Patent Kokai No. 281,795/92).
To solve the above objects, the present inventors studied on a process for producing lactosucrose, using β-fructofuranosidase, from the viewpoints of the origin of β-fructofuranosidase and reaction condition as well as the combination with sucrose-unassimilable yeast. It has been thought that the lactosucrose content in the reaction mixture reaches maximum about 65%, on a saccharide composition basis, even in the case of using β-fructofuranosidase and invertase-deficient yeast.
According to conventional methods, lactosucrose high content fraction, obtained by the method in Example 4, was filtrated, deionized using ion-exchange resin, decolored using activated charcoal, and concentrated under a reduced pressure to give a moisture content of about 25% (w/w). The resulting concentrate was placed in a crystallizer, admixed with 1% (w/w) of seed crystal and gradually cooled to about 30° C. in 24 hours. The resulting massecuite was centrifuged and crystalline lactosucrose pentahydrate was obtained in a yield of about 40%. […]

Consider `O.O.O.O.O.OCC1OC(OC2C(CO)OC(OC3(CO)OC(CO)C(O)C3O)C(O)C2O)C(O)C(O)C1O` (stereo not drawn) [crystalline lactosucrose pentahydrate], for which the hygroscopicity entry in data set [1] is recorded as “strong hygroscopicity”.
On to `OC[C@H]1O[C@@H](O[C@H]2[C@H](O)[C@@H](O)[C@@H](O[C@]3(CO)O[C@H](CO)[C@@H](O)[C@@H]3O)O[C@@H]2CO)[C@H](O)[C@@H](O)[C@H]1O` [crystalline lactosucrose, β-D-galactosyl-(1,4)-α-D-glucosyl-(1,2)-β-D-fructoside], for which the hygroscopicity entry in data set [2] (27° C. and a relative humidity of 75%) is on record as “low hygroscopicity”; in data set [2] (condition of high-temperature and humidity in summer), “no substantial hygroscopicity”.
